Reference: US9453031B2, “Chemical entities” (Fundación Centro Nacional de Investigaciones Oncológicas …, priority 2013, dated 2016)
pEC50, pIC50: −log10 of the molar value.

Experiments:
PI3K (p110α/p85α) = PI3K (p110α/p85α) (Homo sapiens (Human), UniProt P42336); assay: PI3K alpha activity assay (ADP Hunter Plus); assay type: biochemical; conditions: 50 μM ATP, 30 μM PIP2; read-out: PI3Kα IC50
Protocol: The kinase activity was measured by using the commercial ADP Hunter™ Plus assay available from DiscoveRx (#33-016), which is a homogeneous assay to measure the accumulation of ADP, a universal product of kinase activity. […] The reaction was carried out for 1 hour at 25° C. Reagent A and B were sequentially added to the wells and plates were incubated for 30 min at 37° C. Fluorescence counts were read in a Victor instrument (Perkin Elmer) with the recommended settings (544 and 580 nm as excitation and emission wavelengths, respectively).

mTOR = mTOR (Homo sapiens (Human), UniProt P42345); assay: mTOR activity assay (LanthaScreen); assay type: biochemical
Chain of mTOR (P42345 1360-2549): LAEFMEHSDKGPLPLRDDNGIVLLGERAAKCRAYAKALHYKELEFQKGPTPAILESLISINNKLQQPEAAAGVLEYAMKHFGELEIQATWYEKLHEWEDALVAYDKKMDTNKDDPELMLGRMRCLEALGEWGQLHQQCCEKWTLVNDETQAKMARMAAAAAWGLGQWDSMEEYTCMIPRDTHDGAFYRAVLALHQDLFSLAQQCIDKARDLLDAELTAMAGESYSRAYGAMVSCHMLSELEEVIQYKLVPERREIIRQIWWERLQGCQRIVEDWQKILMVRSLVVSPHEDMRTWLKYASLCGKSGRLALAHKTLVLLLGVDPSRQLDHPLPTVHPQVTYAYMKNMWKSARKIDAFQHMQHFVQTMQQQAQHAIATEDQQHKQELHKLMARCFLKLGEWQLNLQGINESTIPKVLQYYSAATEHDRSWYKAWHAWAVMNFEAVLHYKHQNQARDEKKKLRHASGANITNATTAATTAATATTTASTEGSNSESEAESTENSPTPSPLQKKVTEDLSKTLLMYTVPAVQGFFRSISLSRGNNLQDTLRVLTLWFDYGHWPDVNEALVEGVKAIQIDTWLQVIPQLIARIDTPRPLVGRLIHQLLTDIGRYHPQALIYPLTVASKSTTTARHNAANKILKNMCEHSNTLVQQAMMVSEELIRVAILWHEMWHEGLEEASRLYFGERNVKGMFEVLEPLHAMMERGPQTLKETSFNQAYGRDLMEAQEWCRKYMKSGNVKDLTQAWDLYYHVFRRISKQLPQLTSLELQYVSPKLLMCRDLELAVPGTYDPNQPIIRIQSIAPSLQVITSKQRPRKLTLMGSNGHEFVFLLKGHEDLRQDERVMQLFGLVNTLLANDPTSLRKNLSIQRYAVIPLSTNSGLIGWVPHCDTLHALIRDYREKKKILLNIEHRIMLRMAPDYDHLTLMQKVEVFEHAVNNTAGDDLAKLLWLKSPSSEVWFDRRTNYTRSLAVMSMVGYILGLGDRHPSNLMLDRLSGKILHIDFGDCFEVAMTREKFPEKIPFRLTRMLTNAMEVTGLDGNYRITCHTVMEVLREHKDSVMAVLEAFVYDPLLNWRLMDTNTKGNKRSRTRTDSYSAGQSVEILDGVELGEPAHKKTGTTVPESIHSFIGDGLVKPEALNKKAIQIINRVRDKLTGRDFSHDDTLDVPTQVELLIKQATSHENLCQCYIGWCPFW
Protocol: The enzymatic mTOR activity was measured using a LanthaScreen™ kinase activity assay (Invitrogen). The enzyme was purchased from Invitrogen (PV4754), as well as the GFP-labelled substrate (4EBP1-GFP; PV4759) and the Tb-antip4EBP1(pThr46) antibody (PV4757). The assay was performed in 50 Mm HEPES buffer, pH 7.5, containing 1.5 mM MnCl2, 10 mM MgCl2, 1 mM EGTA, 2.5 mM DTT and 0.01% Tween-20. The concentration of the assay components were the following: 0.24 nM mTOR kinase, 400 nM 4EBP1-GFP, […] and serial dilutions of the compound (inhibitor) to be evaluated. After 1 h incubation at room temperature, 20 mM EDTA was used to stop the reaction and terbium-labelled antibody (4 nM) added to detect phosphorylated product. The antibody associates with the phosphorylated product resulting in an increased TR-FRET value. The TR-FRET value (a dimensionless number) was calculated as the ratio of the acceptor signal (GFP, emission at 520 nm) to the donor signal (terbium, emission at 495 nm).

DNA-PK = DNA-PK (Homo sapiens (Human), UniProt P78527); assay: DNAPK activity assay (ADP Hunter Plus); assay type: biochemical; conditions: 75 μM ATP
Protocol: The kinase activity was measured by using the commercial ADP Hunter™ Plus assay available from DiscoveRx (#90-0083), which is a homogeneous assay to measure the accumulation of ADP, a universal product of kinase activity. The enzyme, DNA-PK was purchased from Promega (#V5811). The assay was done following the manufacturer recommendations with slight modifications: Mainly the kinase buffer was replace by 15 mM HEPES, pH 7.5, 10 mM MgCl2, 20 mM NaCl, 1 mM EGTA, 0.1 mg/mL BGG, 0.02% Tween 20. The DNA-PK was assayed in a titration experiment to determine the optimal protein concentration for the inhibition assay. To calculate the […] of the Compounds, serial 1:3 dilutions of the compounds were added to the enzyme at a fixed concentration (2 U/μL). The enzyme was preincubated with the inhibitor and 200 μM DNA substrate and then ATP was added to a final 75 μM concentration. Reaction was carried out for 1 hour at 37° C. Reagent A and B were sequentially added to the wells and plates were incubated for 30 min at RT. Fluorescence counts were read in a EnVision instrument (Perkin Elmer) with the recommended settings (550 and 590 nm as excitation and emission wavelengths, respectively).

ATR = ATR (Homo sapiens (Human), UniProt Q13535); assay: Cellular ATR inhibition, western blot of CHK1(S345) phosphorylation in hydroxyurea treated cells; assay type: cell-based; conditions: HT29 cells
Chain of ATR (Q13535 whole entry): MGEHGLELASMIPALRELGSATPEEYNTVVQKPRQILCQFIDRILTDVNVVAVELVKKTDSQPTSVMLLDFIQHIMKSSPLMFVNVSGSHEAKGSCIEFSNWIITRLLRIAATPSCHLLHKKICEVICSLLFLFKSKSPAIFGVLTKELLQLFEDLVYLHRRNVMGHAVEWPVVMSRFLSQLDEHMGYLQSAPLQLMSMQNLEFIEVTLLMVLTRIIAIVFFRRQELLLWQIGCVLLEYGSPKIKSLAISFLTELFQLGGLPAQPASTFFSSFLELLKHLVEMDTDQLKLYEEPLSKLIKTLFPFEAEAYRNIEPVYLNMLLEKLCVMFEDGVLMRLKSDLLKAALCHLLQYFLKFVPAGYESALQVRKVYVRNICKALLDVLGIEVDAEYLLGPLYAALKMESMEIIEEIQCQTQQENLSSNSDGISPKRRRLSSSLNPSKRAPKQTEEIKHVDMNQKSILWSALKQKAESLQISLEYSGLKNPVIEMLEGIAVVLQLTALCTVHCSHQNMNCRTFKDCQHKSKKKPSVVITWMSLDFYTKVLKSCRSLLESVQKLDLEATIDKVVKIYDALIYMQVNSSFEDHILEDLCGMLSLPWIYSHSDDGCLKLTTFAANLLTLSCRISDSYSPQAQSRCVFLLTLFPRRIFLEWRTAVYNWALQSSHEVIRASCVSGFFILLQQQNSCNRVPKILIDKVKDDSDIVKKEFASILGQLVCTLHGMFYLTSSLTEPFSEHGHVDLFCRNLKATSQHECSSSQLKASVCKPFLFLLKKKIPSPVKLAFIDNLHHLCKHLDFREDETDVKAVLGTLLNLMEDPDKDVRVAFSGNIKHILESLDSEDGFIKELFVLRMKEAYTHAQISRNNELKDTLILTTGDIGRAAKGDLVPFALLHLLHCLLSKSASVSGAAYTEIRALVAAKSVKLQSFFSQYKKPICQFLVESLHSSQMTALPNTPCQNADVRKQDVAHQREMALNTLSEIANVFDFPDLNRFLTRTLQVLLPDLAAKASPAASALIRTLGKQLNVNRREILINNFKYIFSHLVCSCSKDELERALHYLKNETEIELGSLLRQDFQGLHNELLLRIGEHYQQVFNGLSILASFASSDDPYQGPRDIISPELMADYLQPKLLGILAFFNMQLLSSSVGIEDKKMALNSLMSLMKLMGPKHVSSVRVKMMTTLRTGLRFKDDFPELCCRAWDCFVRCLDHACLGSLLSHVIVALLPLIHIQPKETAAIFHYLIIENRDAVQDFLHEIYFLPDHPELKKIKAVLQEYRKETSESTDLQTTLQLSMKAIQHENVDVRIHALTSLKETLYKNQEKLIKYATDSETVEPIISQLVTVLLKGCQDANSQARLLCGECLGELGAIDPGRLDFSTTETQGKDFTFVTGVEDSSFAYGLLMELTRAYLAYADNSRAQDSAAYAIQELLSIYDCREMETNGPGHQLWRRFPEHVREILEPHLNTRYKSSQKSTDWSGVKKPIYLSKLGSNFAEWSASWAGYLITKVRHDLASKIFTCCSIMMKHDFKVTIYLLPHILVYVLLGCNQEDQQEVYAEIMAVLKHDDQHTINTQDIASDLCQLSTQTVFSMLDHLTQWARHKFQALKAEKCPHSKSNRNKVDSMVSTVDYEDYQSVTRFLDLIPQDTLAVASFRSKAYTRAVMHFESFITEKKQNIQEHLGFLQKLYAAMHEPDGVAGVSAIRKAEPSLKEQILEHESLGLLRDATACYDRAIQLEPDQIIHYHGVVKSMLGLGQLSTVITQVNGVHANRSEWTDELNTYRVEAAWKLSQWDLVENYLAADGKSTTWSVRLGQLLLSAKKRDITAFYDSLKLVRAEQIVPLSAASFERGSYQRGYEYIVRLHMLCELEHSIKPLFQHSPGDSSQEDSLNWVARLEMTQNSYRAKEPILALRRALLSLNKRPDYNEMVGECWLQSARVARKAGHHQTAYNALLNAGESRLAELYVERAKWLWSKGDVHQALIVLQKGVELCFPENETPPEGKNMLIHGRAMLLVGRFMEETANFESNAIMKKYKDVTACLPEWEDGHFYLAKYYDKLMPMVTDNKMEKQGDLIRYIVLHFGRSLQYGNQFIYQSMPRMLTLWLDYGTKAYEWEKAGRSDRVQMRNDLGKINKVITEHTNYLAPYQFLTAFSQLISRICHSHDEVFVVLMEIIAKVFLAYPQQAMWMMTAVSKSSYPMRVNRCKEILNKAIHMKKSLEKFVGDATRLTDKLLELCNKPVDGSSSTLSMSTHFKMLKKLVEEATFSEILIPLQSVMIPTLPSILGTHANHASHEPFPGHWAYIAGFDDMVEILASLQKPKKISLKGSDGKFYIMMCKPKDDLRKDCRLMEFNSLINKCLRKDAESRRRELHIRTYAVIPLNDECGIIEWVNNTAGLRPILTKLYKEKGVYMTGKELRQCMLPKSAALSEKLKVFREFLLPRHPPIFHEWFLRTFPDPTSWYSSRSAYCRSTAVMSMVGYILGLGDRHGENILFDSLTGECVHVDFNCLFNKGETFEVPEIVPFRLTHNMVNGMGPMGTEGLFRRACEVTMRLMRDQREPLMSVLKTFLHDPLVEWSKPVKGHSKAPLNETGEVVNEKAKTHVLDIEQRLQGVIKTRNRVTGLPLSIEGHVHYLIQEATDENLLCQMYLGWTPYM
Protocol: In addition to the selective system described above, Example compounds presented here were screened for their ability to inhibit intracellular ATR using a western blot assay to detect phosphorylation of the ATR substrate CHK1(S345) in hydroxyurea treated cells. HT29 cells are plated at 500,000 cells per well in 6-well plates in RPMI media (Sigma R6504) supplemented with 10% foetal bovine serum (Sigma F7524), Penicillin/Streptomycin solution diluted 1:100 (Gibco 15070-063), and fungizone (Gibco, 15290-018), and allowed to adhere overnight at 37° C. in 5% CO2. Compounds are then added to the cell media from a final concentration of 10 μM in 3-fold serial dilutions and the cells are incubated at 37° C. in 5% CO2. After 15 min, hydroxyurea (Sigma H8627) is added to a final concentration of 2.5 mM. After 30 min of treatment with hydroxyurea, the cells are washed in PBS, lysed adding 50 μl of in protein lysis buffer (50 mM Tris pH 7.5, 150 mM NaCl, 1% IGEPAL CO-630 (Sigma, Ref. 542334-100G-A), Phospho Stop (Roche, Ref. 04906837001) and Complete Mini EDTA free (Roche, Ref. 11836170001)). The protein content of the lysates was determined by the modified method of Bradford (Sigma, Ref. B6916). The proteins were resolved by SDS-PAGE and transferred to nitrocellulose membrane (VWR International Eurolab, Ref. 732-4007). The membranes were incubated overnight at 4° C. with antibodies specific for total CHK1 (Santa Cruz Biotechnology, sc-8404), phosphoserine-345 CHK1 (Cell Signaling Technology #2348) they were washed and then incubated with IRDye800 conjugated anti-mouse (Pierce/Cultek, 35521) and Alexa Fluor 680 goat anti-rabbit IgG secondary antibodies (Invitrogen, A21076). The bands were visualized and quantified using an Odyssey infrared imaging system (Li-Cor Biosciences). The percentage of phosphorylated CHK1 vs total CHK1 in cells treated with hydroxyurea was taken as hundred percent of phosphorylation. The percentage of CHK1 phosphorylation is finally plotted against concentration for each compound and EC50s for intracellular ATR inhibition are calculated using ActivityBase from IDBS.

Structure (SMILES)	pIC50 (PI3K (p110α/p85α))	pIC50 (mTOR)	pIC50 (DNA-PK)	pEC50 (ATR; hydroxyurea 2.5 mM)	pEC50 (ATR; hydroxyurea […])
CS(=O)(=O)C1(c2nc(-c3cc(C(F)(F)F)cc4[nH]ccc34)nc3c2OC[C@@H]2COCCN32)CC1 [Example 108]	4.81	6.24	5.76	6.00 to 7.00	
CNc1nc2cc(Cl)ccc2n1-c1nc2c(c(C3(S(C)(=O)=O)CC3)n1)OC[C@@H]1COCCN21 [Example 86]	4.30	5.47	5.00		< 6.00
CC(C)(O)c1nc(-c2cccc3[nH]ccc23)nc2c1OC[C@@H]1COCCN21 [Example 44]	5.93	7.36	5.51	6.00 to 7.00	
COc1cc(-c2nc3c(c(C4(S(C)(=O)=O)CC4)n2)OC[C@@H]2COCCN32)c2cc[nH]c2c1 [Example 75]	5.60	7.03	5.74	6.00 to 7.00	
CC(C)(c1nc(-c2ccc(F)c3[nH]ccc23)nc2c1OC[C@@H]1COCCN21)S(C)(=O)=O [Example 102]	4.30	5.74	7.00	< 6.00	
CNc1nc2ccc(Cl)cc2n1-c1nc2c(c(C(C)(C)S(C)(=O)=O)n1)OC[C@@H]1COCCN21 [Example 81]	4.30	5.26	5.00		< 6.00
CNc1nc2ccc(F)cc2n1-c1nc2c(c(C3(S(C)(=O)=O)CCC3)n1)OC[C@@H]1COCCN21 [Example 97]	4.30	5.17	5.17		6.00 to 7.00
COc1cc(-c2nc3c(c(C4(S(C)(=O)=O)CCOCC4)n2)OC[C@@H]2COCCN32)c2cc[nH]c2c1 [Example 29]	5.42	6.36	4.60	> 7.00	
CNc1nc2ccccc2n1-c1nc2c(c(C(C)(C)S(C)(=O)=O)n1)OCC[C@@H]1COCCN21 [Example 62]	4.79	5.18	5.00	6.00 to 7.00	
CS(=O)(=O)C1(c2nc(-c3cc(C(F)(F)F)cc4[nH]ccc34)nc3c2OC[C@@H]2COCCN32)CCOCC1 [Example 105]	4.54	5.70	5.00	6.00 to 7.00	
COc1cc(-c2nc3c(c(C(C)(C)S(C)(=O)=O)n2)OC[C@@H]2COCCN32)c2cc[nH]c2c1 [Example 72]	6.09	7.34	5.80	6.00 to 7.00	
Cc1cc2c(-c3nc4c(c(C5(S(C)(=O)=O)CCC5)n3)OC[C@@H]3COCCN43)cccc2[nH]1 [Example 93]	5.13	6.93	5.00	6.00 to 7.00	
CNc1nc2ccc(Cl)cc2n1-c1nc2c(c(C3(S(C)(=O)=O)CC3)n1)OC[C@@H]1COCCN21 [Example 87]	4.30	5.00	6.68		< 6.00
CC(C)(c1nc(-n2c(N)nc3ccccc32)nc2c1OC[C@@H]1COCCN21)S(C)(=O)=O [Example 70]	6.06	6.65	6.13		6.00 to 7.00
Cc1cc2c(-c3nc4c(c(C5(S(C)(=O)=O)CC5)n3)OC[C@@H]3COCCN43)cccc2[nH]1 [Example 109]	5.24	6.65	5.00	6.00 to 7.00	
CC(C)(c1nc(-n2c(N3CCOCC3)nc3ccccc32)nc2c1OC[C@@H]1COCCN21)S(C)(=O)=O [Example 73]	4.30	5.00	5.00		< 6.00
CS(=O)(=O)C1(c2nc(-c3cc(F)cc4[nH]ccc34)nc3c2OC[C@@H]2COCCN32)CC1 [Example 74]	5.65	6.82	6.00	6.00 to 7.00	
CC(C)(c1nc(-c2cccc3[nH]ccc23)nc2c1OC[C@H]1COCCN21)S(C)(=O)=O [Example 15]	5.96	6.07	5.54	6.00 to 7.00	
CC(C)(c1nc(-c2cc(C(F)(F)F)cc3[nH]ccc23)nc2c1OC[C@@H]1COCCN21)S(C)(=O)=O [Example 101]	4.90	6.64	5.00	6.00 to 7.00	
Cc1cc2c(-c3nc4c(c(C(C)(C)S(C)(=O)=O)n3)OC[C@@H]3COCCN43)cccc2[nH]1 [Example 103]	5.50	7.24	5.00	6.00 to 7.00	
CC(C)(c1nc(-c2cccc3[nH]ccc23)nc2c1OC[C@@H]1COCCN21)S(=O)(=O)C1CC1 [Example 61]	5.49	6.64	5.00	6.00 to 7.00	
CS(=O)(=O)C1(c2nc(-c3ccc(F)c4[nH]ccc34)nc3c2OC[C@@H]2COCCN32)CCOCC1 [Example 106]	4.30	5.00	5.94	< 6.00	
CS(=O)(=O)C1(c2nc(-c3cc(F)cc4[nH]ccc34)nc3c2OC[C@@H]2COCCN32)CCOCC1 [Example 28]	5.33	6.11	4.60	> 7.00	
CNc1nc2ccc(C#N)cc2n1-c1nc2c(c(C(C)(C)S(C)(=O)=O)n1)OC[C@@H]1COCCN21 [Example 114]	4.30	5.00	5.00		< 6.00
CC(C)(c1nc(-c2c(F)ccc3[nH]ccc23)nc2c1OC[C@H]1COCCN21)S(C)(=O)=O [Example 26]	5.57	5.00	5.00	< 6.00	
CS(=O)(=O)C1(c2nc(-c3cc(C(F)(F)F)cc4[nH]ccc34)nc3c2OC[C@@H]2COCCN32)CCC1 [Example 112]	4.71	6.63	5.00	6.00 to 7.00	
CNc1nc2cc(F)ccc2n1-c1nc2c(c(C3(S(C)(=O)=O)CCC3)n1)OC[C@@H]1COCCN21 [Example 96]	4.30	5.22	5.00		6.00 to 7.00
CNc1nc2ccccc2n1-c1nc2c(c(C3(S(C)(=O)=O)CCC3)n1)OC[C@@H]1COCCN21 [Example 92]	5.56	5.91	5.21	> 7.00	
CS(=O)(=O)C1(c2nc(-c3cccc4[nH]ccc34)nc3c2OC[C@@H]2COCCN32)CC1 [Example 6]	5.35	6.25	5.34	6.00 to 7.00	
